The experiment has as its target recombinant DYRK1A kinase (Homo sapiens, UniProt Q13627). In words: DYRK1A kinase assay (Ser/Thr 18 peptide Z-lyte FRET). Type of experiment: biochemical. The following applies: DYRK1A 0.25 μg/mL, ATP 15 μM, Ser/Thr peptide 18 4 μM, one hour at room temperature, 11-point dose-response from 10 μM. Here is the method: Representative compounds were screened using the assay procedure for DYRK1A kinase activity as described below.
Each compound was dissolved in DMSO as a 10 mM stock and used to prepare compound source plates. Serial dilution (1:3, 11-point dose-response curves from 10 μM to 0.00016 μM) and compound transfer was performed using the ECHO 550 (Labcyte, Sunnyvale, CA) into 1536-well black-walled round bottom plates (Corning).
The DYRK1A kinase assay was run using the Ser/Thr 18 peptide Z-lyte assay kit according to manufacturer's instructions (Life Technologies—a Division of Thermo-Fisher). This is a non-radioactive assay using fluorescence resonance energy transfer (FRET) between coumarin and fluorescein to detect kinase activity which is represented as a ratio of coumarin emission/fluorescein emission.
Briefly, recombinant DYRK1A kinase, ATP and Ser/Thr peptide 18 were prepared in 1× Kinase buffer to final concentrations of 0.25 μg/mL, 15 μM, and 4 μM respectively. The mixture was allowed to incubate with the representative compounds for one hour at room temperature. All reactions were performed in duplicate. Unphosphorylated (“0% Control”) and phosphorylated (“100% control”) forms of Ser/Thr 18 served as control reactions. Additionally, an 11-point dose-response curve of Staurosporine (1 uM top) was run to serve as a positive compound control.
After incubation, Development Reagent A was diluted in Development Buffer then added to the reaction and allowed to further incubate for one hour at room temperature. The plate was read at Ex 400 Em 455 to detect the coumarin signal and Ex 400 Em 520 to measure the signal (EnVision Multilabel Plate Reader, PerkinElmer).
The Emission ratio (Em) was calculated as a ratio of the coumarin (C) emission signal (at 445 nm)/Fluorescein (F) emission signal (at 520 nm). The percent phosphorylation was then calculated using the following formula: [1−((Em ratio×F100%)−C100%)/((C0%−C100%)+(Em ratio×(F100%−F0%)))]. Dose-response curves were generated, and inhibitory concentration (IC50) values were calculated using non-linear regression curve fit in the Dotmatics' Studies Software (Bishops Stortford, UK).
The term IC50 denotes the concentration at which inhibition is half-maximal. `C[C@]1(O)CC[C@H](Nc2nc(N)c3c(-c4ccc5ncn(CC(F)(F)F)c5n4)ccn3n2)CC1` [Compound 123, (1r,4r)-4-((4-Amino-5-(3-(2,2,2-trifluoroethyl)-3H-imidazo[4,5-b]pyridin-5-yl)pyrrolo[2,1-f][1,2,4]triazin-2-yl)amino)-1-methylcyclohexan-1-ol]: the IC50 was found to be 1.9 nM.

`CN1C[C@@H](Nc2nc(N)c3c(-c4ccc5ncn(CC(F)(F)F)c5n4)ccn3n2)C(F)(F)C1` [Compound 124, (R)—N^2-(4,4-Difluoro-1-methylpyrrolidin-3-yl)-5-(3-(2,2,2-trifluoroethyl)-3H-imidazo[4,5-b]pyridin-5-yl)pyrrolo[2,1-f][1,2,4]triazine-2,4-diamine]: the concentration for half-maximal inhibition (IC50) came to 1 nM.

Regarding `CN1CC[C@H](Nc2nc(N)c3c(-c4ccc5ncn(CC(F)(F)F)c5n4)ccn3n2)[C@H](F)C1` [Compound 125, N^2-((3R,4S)-3-Fluoro-1-methylpiperidin-4-yl)-5-(3-(2,2,2-trifluoroethyl)-3H-imidazo[4,5-b]pyridin-5-yl)pyrrolo[2,1-f][1,2,4]triazine-2,4-diamine], the half-inhibitory concentration (IC50) is 1.7 nM.

Take `COCCN1CC[C@H](Nc2nc(N)c3c(-c4ccc5ncn(CC(F)(F)F)c5n4)ccn3n2)[C@H](F)C1` [Compound 126, N^2-((3R,4S)-3-Fluoro-1-(2-methoxyethyl)piperidin-4-yl)-5-(3-(2,2,2-trifluoroethyl)-3H-imidazo[4,5-b]pyridin-5-yl)pyrrolo[2,1-f][1,2,4]triazine-2,4-diamine]: the half-maximal inhibitory concentration (IC50) turned out to be 1.3 nM.

For `CC(=O)N1CC[C@H](Nc2nc(N)c3c(-c4ccc5ncn(CC(F)(F)F)c5n4)ccn3n2)[C@H](F)C1` [Compound 127, 1-((3R,4S)-4-((4-Amino-5-(3-(2,2,2-trifluoroethyl)-3H-imidazo[4,5-b]pyridin-5-yl)pyrrolo[2,1-f][1,2,4]triazin-2-yl)amino)-3-fluoropiperidin-1-yl)ethan-1-one], the IC50 worked out at 1.5 nM.

For the compound `Nc1nc(N[C@@H]2CCN(C3COC3)C[C@@H]2F)nn2ccc(-c3ccc4ncn(CC(F)(F)F)c4n3)c12` [Compound 128, N^2-((3S,4R)-3-Fluoro-1-(oxetan-3-yl)piperidin-4-yl)-5-(3-(2,2,2-trifluoroethyl)-3H-imidazo[4,5-b]pyridin-5-yl)pyrrolo[2,1-f][1,2,4]triazine-2,4-diamine], the concentration for half-maximal inhibition (IC50) was 1.4 nM.

For the compound `Nc1nc(N[C@H]2CCN(C3COC3)C[C@H]2F)nn2ccc(-c3ccc4ncn(CC(F)(F)F)c4n3)c12` [Compound 129, N^2-((3R,4S)-3-Fluoro-1-(oxetan-3-yl)piperidin-4-yl)-5-(3-(2,2,2-trifluoroethyl)-3H-imidazo[4,5-b]pyridin-5-yl)pyrrolo[2,1-f][1,2,4]triazine-2,4-diamine], the half-maximal inhibitory concentration (IC50) is 1.4 nM.

As to `Nc1nc(N[C@@H]2CCN(C3COC3)CC2(F)F)nn2ccc(-c3ccc4ncn(CC(F)(F)F)c4n3)c12` [Compound 131, (R)—N^2-(3,3-Difluoro-1-(oxetan-3-yl)piperidin-4-yl)-5-(3-(2,2,2-trifluoroethyl)-3H-imidazo[4,5-b]pyridin-5-yl)pyrrolo[2,1-f][1,2,4]triazine-2,4-diamine], the concentration for half-maximal inhibition (IC50) came out at 4.7 nM.

For the compound `CNc1nc(N[C@H]2C[C@](C)(O)C2)nn2ccc(-c3ccc4ncn(CC(F)(F)F)c4n3)c12` [Compound 132, (1r,3r)-1-Methyl-3-((4-(methylamino)-5-(3-(2,2,2-trifluoroethyl)-3H-imidazo [4,5-b]pyridin-5-yl)pyrrolo[2,1-f][1,2,4]triazin-2-yl)amino)cyclobutan-1-ol], the IC50 worked out at 1.2 nM.

Regarding `CNc1nc(N[C@H]2CCN(C(C)=O)C[C@H]2F)nn2ccc(-c3ccc4nc(C)n(C(F)F)c4n3)c12` [Compound 134], the IC50 came out at 5 nM.

On to `CNc1nc(N[C@H]2CCN(C3COC3)C[C@H]2F)nn2ccc(-c3ccc4nc(C)n(C(F)F)c4n3)c12` [Compound 135, 5-(3-(Difluoromethyl)-2-methyl-3H-imidazo[4,5-b]pyridin-5-yl)-N^2-((3R,4S)-3-fluoro-1-(oxetan-3-yl)piperidin-4-yl)-N^4-methylpyrrolo[2,1-f][1,2,4]triazine-2,4-diamine], for which the IC50 is 6.4 nM.

For the compound `Cc1nc2ccc(-c3ccn4nc(N[C@@H]5CCN(C6COC6)C[C@@H]5F)nc(N)c34)nc2n1CCF` [Compound 141, N^2-((3S,4R)-3-Fluoro-1-(oxetan-3-yl)piperidin-4-yl)-5-(3-(2-fluoroethyl)-2-methyl-3H-imidazo[4,5-b]pyridin-5-yl)pyrrolo[2,1-f][1,2,4]triazine-2,4-diamine], the 50% inhibitory concentration (IC50) was found to be 3.4 nM.

In the case of `Cc1nc2ccc(-c3ccn4nc(N[C@@H]5CCN(C)CC5(F)F)nc(N)c34)nc2n1CCF` [Compound 142, (R)—N^2-(3,3-Difluoro-1-methylpiperidin-4-yl)-5-(3-(2-fluoroethyl)-2-methyl-3H-imidazo[4,5-b]pyridin-5-yl)pyrrolo[2,1-f][1,2,4]triazine-2,4-diamine], the IC50 is 2.7 nM.

Take `Cc1nc2ccc(-c3c(F)cn4nc(N[C@H]5CC[C@](C)(O)CC5)nc(N)c34)nc2n1CCF` [Compound 143, (1r,4r)-4-((4-Amino-6-fluoro-5-(3-(2-fluoroethyl)-2-methyl-3H-imidazo[4,5-b]pyridin-5-yl)pyrrolo[2,1-f][1,2,4]triazin-2-yl)amino)-1-methylcyclohexan-1-ol]: the 50% inhibitory concentration (IC50) amounted to 1.3 nM.

With `CC(=O)N1CC[C@H](Nc2nc(N)c3c(-c4ccc5nc(C)n(CCF)c5n4)c(F)cn3n2)[C@H](F)C1` [Compound 144, 1-((3R,4S)-4-((4-Amino-6-fluoro-5-(3-(2-fluoroethyl)-2-methyl-3H-imidazo [4,5-b]pyridin-5-yl)pyrrolo[2,1-f][1,2,4]triazin-2-yl)amino)-3-fluoropiperidin-1-yl)ethan-1-one], the half-inhibitory concentration (IC50) turned out to be 4.2 nM.

As to `Cc1nc2ccc(-c3c(F)cn4nc(N[C@H]5CCN(C6COC6)C[C@H]5F)nc(N)c34)nc2n1CCF` [Compound 145, 6-Fluoro-N2-((3R,4S)-3-fluoro-1-(oxetan-3-yl)piperidin-4-yl)-5-(3-(2-fluoroethyl)-2-methyl-3H-imidazo[4,5-b]pyridin-5-yl)pyrrolo[2,1-f][1,2,4]triazine-2,4-diamine], the 50% inhibitory concentration (IC50) stood at 1.7 nM.

For the compound `Cc1nc2ccc(-c3c(F)cn4nc(N[C@@H]5CCN(C)CC5(F)F)nc(N)c34)nc2n1CCF` [Compound 146, (R)—N^2-(3,3-Difluoro-1-methylpiperidin-4-yl)-6-fluoro-5-(3-(2-fluoroethyl)-2-methyl-3H-imidazo[4,5-b]pyridin-5-yl)pyrrolo[2,1-f][1,2,4]triazine-2,4-diamine], the IC50 was determined as 0.8 nM.

For `CC(=O)N1CC[C@@H](Nc2nc(N)c3c(-c4ccc5nc(C)n(CCF)c5n4)c(F)cn3n2)C(F)(F)C1` [Compound 147, (R)-1-(4-((4-Amino-6-fluoro-5-(3-(2-fluoroethyl)-2-methyl-3H-imidazo[4,5-b]pyridin-5-yl)pyrrolo[2,1-f][1,2,4]triazin-2-yl)amino)-3,3-difluoropiperidin-1-yl)ethan-1-one], the IC50 came out at 1.4 nM.

In the case of `Cc1nc2ccc(-c3c(F)cn4nc(N[C@@H]5CCN(C6COC6)CC5(F)F)nc(N)c34)nc2n1CCF` [Compound 149, (R)—N^2-(3,3-Difluoro-1-(oxetan-3-yl)piperidin-4-yl)-6-fluoro-5-(3-(2-fluoroethyl)-2-methyl-3H-imidazo[4,5-b]pyridin-5-yl)pyrrolo[2,1-f][1,2,4]triazine-2,4-diamine], the IC50 worked out at 0.8 nM.

With `CNc1nc(N[C@H]2CCN(C3COC3)C[C@H]2F)nn2ccc(-c3ccc4nc(C)n(CCF)c4n3)c12` [Compound 157, N^2-((3R,4S)-3-Fluoro-1-(oxetan-3-yl)piperidin-4-yl)-5-(3-(2-fluoroethyl)-2-methyl-3H-imidazo[4,5-b]pyridin-5-yl)-N^4-methylpyrrolo[2,1-f][1,2,4]triazine-2,4-diamine], the IC50 was found to be 15.8 nM.

In the case of `CNc1nc(N[C@@H]2CCN(C3COC3)CC2(F)F)nn2ccc(-c3ccc4nc(C)n(CCF)c4n3)c12` [Compound 160, (R)—N^2-(3,3-Difluoro-1-(oxetan-3-yl)piperidin-4-yl)-5-(3-(2-fluoroethyl)-2-methyl-3H-imidazo[4,5-b]pyridin-5-yl)-N^4-methylpyrrolo[2,1-f][1,2,4]triazine-2,4-diamine], the IC50 amounted to 2.2 nM.

In the case of `CNc1nc(N[C@H]2CC[C@](C)(O)CC2)nn2cc(F)c(-c3ccc4nc(C)n(CCF)c4n3)c12` [Compound 162, (1r,4r)-4-((6-Fluoro-5-(3-(2-fluoroethyl)-2-methyl-3H-imidazo[4,5-b]pyridin-5-yl)-4-(methylamino)pyrrolo[2,1-f][1,2,4]triazin-2-yl)amino)-1-methylcyclohexan-1-ol], the IC50 was found to be 3.1 nM.

These data come from patent publication US20250340575A1, “4-AMINOPYRROLO[2,1-F][1,2,4]TRIAZINES AND PREPARATION AND USES THEREOF” (Biosplice Therapeutics, Inc., priority 2024, published 2025).
